Measured values: patent US4663310A, “Renin inhibitors containing 2-substituted statine” (Merck & Co., Inc., priority 1984, dated 1987)
Starred links: 1 amine or outer side, 2 acyl side, 3 side chain; linkers in the order of their positions; H or OH if unused. Non-standard residues stand in square brackets, D forms with d. Residues, ends and D or L forms follow the SMILES beside them. *: point of attachment. X1 = CC(C)CC(C(=O)[*:2])[C@H](O)[C@H](CC(C)C)N[*:1]; Isobutyryl = CC(C)C(=O)*

Legend:
nephrectomized rats = settings: after the injection of hog renin into nephrectomized rats; Gross et al.; cited from earlier work
acid proteases = settings: cited from earlier work
human kidney renin = molecular target: T1, human kidney renin (Homo sapiens, UniProt P00797); test: Inhibition of purified human kidney renin; type: biochemical; settings: dissociation constant of the inhibited enzyme inhibitor complex
T1 construct: human kidney renin purified as described in Bangham; from tissue; host or cells: human kidney
T1 sequence (P00797 67-406): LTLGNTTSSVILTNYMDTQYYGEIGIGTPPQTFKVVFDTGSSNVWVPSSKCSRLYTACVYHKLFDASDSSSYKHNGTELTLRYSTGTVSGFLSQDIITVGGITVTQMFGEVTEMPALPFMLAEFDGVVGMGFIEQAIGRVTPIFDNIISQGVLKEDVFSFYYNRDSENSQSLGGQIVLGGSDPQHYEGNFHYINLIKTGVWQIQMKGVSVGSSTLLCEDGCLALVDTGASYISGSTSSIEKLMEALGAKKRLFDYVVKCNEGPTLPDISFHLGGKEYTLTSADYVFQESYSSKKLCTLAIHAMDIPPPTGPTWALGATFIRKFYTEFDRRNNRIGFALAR
Experimental: (§1) Assays were carried out in order to determine the inhibitory potency of the peptides of the present invention. One assay measured the inhibition of hog kidney renin, and was in accordance with the procedure described in Rich et al., J. Med. Chem. 23: 27, 1980, except that a pH of 7.3 was used. Another assay measured the inhibition of human kidney renin purified as described in Bangham, D. R., Robertson, I., Robinson, J. I. S., Robinson, C. J., and Tree, M., Clinical Science and Molecular Medicine, 48 (Supp. 2): 136s-159s (1975), and further purified by affinity chromatography on pepstatin-aminohexyl-Sepharase as described in Poe, M., Wu., J. K., Florance, J. R., Radkey, J. A., Bennett, C. D., and Hoogsteen, K., J. Biol. Chem. 258: 2209-2216 (1983). The assay was also in accordance with Poe et al. cited above. Further assays measured human plasma renin and dog plasma renin in accordance with procedures described in Boger et al., Nature, 303: 81-84 (1983).
Results expressed as KI values refer to the dissociation constant of the inhibited enzyme inhibitor complex. This KI value was obatined as described above. Pepstatin was used as an active control.

human plasma renin = molecular target: T2, human plasma renin (Homo sapiens, UniProt P00797); test: Human plasma renin assay; type: biochemical; settings: read-out: Renin Inhibition Human Plasma I50
T2 construct: Further assays measured human plasma renin and dog plasma renin; from tissue; host or cells: human plasma
T2 sequence (P00797 67-406): T1 sequence (P00797 67-406)
Experimental: as §1

dog plasma renin = molecular target: T3, dog plasma renin (Canis lupus familiaris, UniProt Q6DYE7); test: Dog plasma renin assay; type: biochemical; settings: for IC50: read-out: Renin Inhibition Dog Plasma I50
T3 construct: Further assays measured human plasma renin and dog plasma renin; from tissue; host or cells: dog plasma
T3 sequence (Q6DYE7 66-403): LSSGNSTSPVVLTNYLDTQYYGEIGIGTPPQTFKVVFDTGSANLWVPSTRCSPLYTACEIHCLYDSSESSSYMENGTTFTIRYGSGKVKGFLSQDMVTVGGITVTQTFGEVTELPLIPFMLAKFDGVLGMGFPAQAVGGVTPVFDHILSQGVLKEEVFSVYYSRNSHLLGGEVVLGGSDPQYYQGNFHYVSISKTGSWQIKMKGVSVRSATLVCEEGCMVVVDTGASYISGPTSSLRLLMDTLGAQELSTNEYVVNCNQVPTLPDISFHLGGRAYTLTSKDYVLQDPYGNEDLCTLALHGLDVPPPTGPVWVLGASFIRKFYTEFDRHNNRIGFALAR
Experimental: as §1

hog kidney renin = test: Inhibition of hog kidney renin; type: biochemical; settings: pH 7.3; read-out: Renin Inhibition Hog Kidney I50
Experimental: as §1

Compound: Pepstatin
- blood pressure in vivo (nephrectomized rats): reduce blood pressure
- inhibition of other acid proteases (selectivity) (acid proteases): inhibition of a variety of other acid proteases in addition to renin

Compound: CC(C)CC[C@@H](C(=O)N[C@@H](CC(C)C)C(=O)NCc1ccccc1)[C@H](O)[C@H](Cc1ccccc1)NC(=O)[C@H](Cc1c[nH]cn1)NC(=O)[C@H](Cc1ccccc1)NC(=O)OC(C)(C)C [BOCPheHis(2- -i-Pent)AHPPALeu]
- Ki (human kidney renin): 4.4 nM
- IC50 (human plasma renin): 65 nM
- IC50 (dog plasma renin): 6.2 nM

Compound: CC(C)CC(C(=O)N[C@@H](CC(C)C)C(=O)N[C@@H](Cc1ccccc1)C(N)=O)[C@H](O)[C@H](CC(C)C)NC(=O)[C@H](Cc1ccccc1)NC(=O)[C@H](Cc1ccccc1)NC(=O)[C@@H]1CCCN1C(=O)[C@H](Cc1c[nH]cn1)NC(=O)C(C)C (some centres unmarked) [IBUHisProPhePhe(2- -i-Bu)StaLeuPheNH2] (Isobutyryl-HPFF[X1]LF-NH2)
- IC50 (hog kidney renin): 22 nM

Compound: CC(C)C[C@H](NC(=O)[C@H](CC(C)C)[C@H](O)[C@H](CC(C)C)NC(=O)[C@H](Cc1c[nH]cn1)NC(=O)[C@H](Cc1ccccc1)NC(=O)OC(C)(C)C)C(=O)NCc1ccccc1 [BOCPheHis(2- -i-Bu)StaLeu]
- Ki (human kidney renin): 10 nM
- Renin Inhibition Dog Plasma % I (dog plasma renin; I 10^-6): 0%

Compound: CC(C)C[C@H](NC(=O)[C@H](CC(C)C)[C@H](O)[C@H](Cc1ccccc1)NC(=O)[C@H](Cc1c[nH]cn1)NC(=O)[C@H](Cc1ccccc1)NC(=O)OC(C)(C)C)C(=O)NCc1ccccc1 [BOCPheHis(2- -i-Bu)AHPPALeu, tert-Butyloxycarbonyl-L-phenylalanyl-L-histidyl-4(S)-amino-3(S)-hydroxy-2(R)-iso-butyl-5-phenylpentanoyl-L-leucyl-benzylamide]
- Ki (human kidney renin): 9.3 nM
- IC50 (human plasma renin): 8.2 nM
- IC50 (dog plasma renin): 3.5 nM
